Experimental data from patent US7674594B2, “Screening assay for inhibitors of TRPA1 activation by a lower alkyl phenol” (Redpoint Bio Corporation, priority 2006, dated 2010).
“Also recorded” adds a separate entry of the source. Blank lines part the entries; values can stand above or below the compound they belong to.

Assays:
parental HEK293 cells = experiment: Membrane potential dye fluorescence assay in parental (non-transfected) HEK293 cells; assay type: cell-based, human; details: cells not expressing TRPA1
hTRPA1 [1] = biological target: T1, hTRPA1 (Homo sapiens, UniProt O75762); experiment: Modulation of agonist-activated TRPA1 in HEK293 cells expressing hTRPA1 (membrane potential dye); assay type: cell-based; details: for inhibition of thymol activated TRPA1 (in words): HEK293 cells
T1 construct: The full length hTRPA1 was amplified by PCR with Kpn1 and Xho1 restriction enzyme sites; expressed in transfected cells; also transient transfection
T1 sequence (O75762 whole entry): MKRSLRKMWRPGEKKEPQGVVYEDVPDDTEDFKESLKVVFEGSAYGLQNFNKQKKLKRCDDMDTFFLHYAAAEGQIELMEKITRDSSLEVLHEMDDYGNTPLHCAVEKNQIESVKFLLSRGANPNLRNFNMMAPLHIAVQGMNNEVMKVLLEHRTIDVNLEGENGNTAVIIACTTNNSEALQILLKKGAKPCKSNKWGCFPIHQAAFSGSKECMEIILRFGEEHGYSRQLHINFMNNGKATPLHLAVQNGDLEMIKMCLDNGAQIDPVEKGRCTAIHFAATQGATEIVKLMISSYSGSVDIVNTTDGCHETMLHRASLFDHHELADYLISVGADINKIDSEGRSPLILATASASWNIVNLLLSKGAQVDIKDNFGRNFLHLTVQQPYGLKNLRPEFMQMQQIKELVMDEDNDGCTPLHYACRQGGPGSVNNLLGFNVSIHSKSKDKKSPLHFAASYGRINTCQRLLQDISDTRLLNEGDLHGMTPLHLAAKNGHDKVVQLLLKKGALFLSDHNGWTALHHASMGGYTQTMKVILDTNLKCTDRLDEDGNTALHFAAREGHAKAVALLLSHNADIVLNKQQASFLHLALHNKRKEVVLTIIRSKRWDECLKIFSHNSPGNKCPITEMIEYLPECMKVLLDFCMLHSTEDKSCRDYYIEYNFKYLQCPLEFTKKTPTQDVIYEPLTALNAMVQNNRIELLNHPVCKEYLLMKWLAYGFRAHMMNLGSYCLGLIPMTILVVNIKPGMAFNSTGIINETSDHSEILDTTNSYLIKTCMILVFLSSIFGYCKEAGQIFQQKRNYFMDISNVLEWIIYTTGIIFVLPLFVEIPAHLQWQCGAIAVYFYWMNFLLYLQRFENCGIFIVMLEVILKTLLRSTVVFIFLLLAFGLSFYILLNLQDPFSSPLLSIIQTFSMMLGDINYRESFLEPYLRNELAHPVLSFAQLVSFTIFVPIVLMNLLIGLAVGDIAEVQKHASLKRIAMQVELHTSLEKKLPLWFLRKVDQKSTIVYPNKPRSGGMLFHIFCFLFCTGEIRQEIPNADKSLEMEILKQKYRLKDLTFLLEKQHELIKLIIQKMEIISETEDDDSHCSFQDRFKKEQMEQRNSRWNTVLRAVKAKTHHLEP
Protocol: (§1) Samples in a 384-well plate were evaluated in a 5 minute assay on the FLIPR-Tetra™ (Molecular Devices). The assay was performed on a FLIPR™ using the excitation 510-545 nm and emission 565-625 nm filter sets. TRPA1-Transfected HEK cells, 15,000/well, were seeded overnight on poly-D-lysine coated 384 well plates in 20 μl media. Membrane Potential Assay Dye Red (Molecular Devices), 20 μl/well, was added and the plates incubated for 1 hour in a 37° C. and 5% CO2 incubator. The plates were then removed from the incubator and equilibrated to room temperature for 15 minutes before reading on the FLIPR®. The plates were read on the FLIPR® for a total of 3 minutes. Baseline fluorescence was obtained on the FLIPR® for 10 seconds followed by addition (typically 10 μl) of each agonist by the FLIPR® and read for an additional 2 minutes and 50 seconds.
Appropriate control experiments are performed and can easily be determined by the skilled artisan.
HEK293 cells and CHO cells expressing TRPA1 were subjected to the assay described in Example 2.

hTRPA1 [2] = biological target: T1, hTRPA1; experiment: Membrane potential dye fluorescence assay (FLIPR/FLEXstation), activation of hTRPA1 in transfected HEK293 cells; assay type: cell-based; details: for TRPA1 activation / agonist activity (in words): hTRPA1 HEK293 cells, increase in fluorescence of membrane potential dye
Protocol: Once expression of TRPA1 was confirmed, 100 μl of the Blue or Red FMP dye (Molecular Devices) was added to each well of plates seeded with the transiently transfected cells. The plate was then incubated in a 37° C./5% CO2 incubator for 1 hour. The plate was read in a FLEXStation microplate reader (Molecular Devices) with an excitation of 530 nm and an emission of 565 nm. The fluorescence was monitored for 3 minutes upon exposure of the cells to a TRPA1 activating agent (e.g., cinnamaldehyde).
as §1

SMILES: Cc1ccc(O)cc1C [3,4-dimethylphenol]
response of parental HEK293 cells (in words) (parental HEK293 cells): no response

SMILES: CC1(C)[C@@H]2C[C@H]1[C@@](C)(O)[C@@H](O)C2 [Pinanediol]
inhibition of thymol activated TRPA1 (in words) (hTRPA1 [1]): both inhibited TRPA1 activation at 1 mM | TRPA1 activation / agonist activity (in words) (hTRPA1 [2]): Neither isomer (+ shown) had a significant agonist activity until 10 mM

SMILES: CC1(C(=O)O)CCC(C(=O)O)C1(C)C (stereo not shown) [camphoric acid]
inhibition of thymol activated TRPA1 (in words) (hTRPA1 [1]): do not act as agonists of thymol activation of TRPA1 | TRPA1 activation / agonist activity (in words) (hTRPA1 [2]): are TRPA1 agonists; also recorded: have agonist activity

EC50 (hTRPA1 [2]; TRPA1 HEK293 cells, FIGS. 8C and 8D, read-out: EC50 of agonist response in TRPA1): ~300 µM
SMILES: CC12CCC(C(=O)C1=O)C2(C)C (stereo not shown) [camphorquinone]
inhibition of thymol activated TRPA1 (in words) (hTRPA1 [1]): do not act as agonists of thymol activation of TRPA1 | effect on subsequent thymol and cinnamaldehyde responses (in words) (hTRPA1 [1]; TRPA1 transfected HEK293 cells, compound first, then agonist): desensitizes thymol and cinnamaldehyde responses | TRPA1 activation / agonist activity (in words) (hTRPA1 [2]): triggers an agonist response; also recorded: are TRPA1 agonists; also recorded: have agonist activity

SMILES: CC1(C)C2CCC1(CS(N)(=O)=O)C(=O)C2 (stereo not shown) [camphorsufomamide]
inhibition of thymol activated TRPA1 (in words) (hTRPA1 [1]): do not act as agonists of thymol activation of TRPA1 | TRPA1 activation / agonist activity (in words) (hTRPA1 [2]): have agonist activity

SMILES: C=C(C)[C@H]1CC=C(C)CC1 [limonene]
inhibition of thymol activated TRPA1 (in words) (hTRPA1 [1]): do not act as agonists of thymol activation of TRPA1 | TRPA1 activation / agonist activity (in words) (hTRPA1 [2]): are TRPA1 agonists; also recorded: have agonist activity
